Consider ten molecules from publication PMC12195836, “From Ethnopharmacology to Active Compound: Effects of Traditional Plant Extracts on Varicose Vein-Related Enzymes and Isolation of Active Flavonoids from Helichrysum plicatum DC. subsp. plicatum” (Pharmaceuticals, 2025).

Where two headings read alike, the source gives them in different places.

The target in experiment [1] is collagenase. Nature of the experiment: Collagenase inhibition, modified spectrophotometric method. The format is biochemical. How it is done:
(§1) All plant samples were macerated using 80% ethanol at room temperature for 5 days. Subsequently, filter paper was used to filter the samples, and the remaining filtrate was evaporated to dryness in a rotary evaporator (Büchi, Flawil, Switzerland). The extracts were weighed and dissolved in dimethyl sulfoxide (DMSO) to reach a concentration of 2 mg/mL, which was used in the in vitro experiments.
The enzyme inhibition assays conducted in this study included elastase, collagenase, hyaluronidase, XO, and prolyl POP inhibition and were performed using an ELISA microplate reader (Spectramax i3x microplate reader with Softmax® Pro Software for Windows 10; Molecular Devices, San Jose, USA). Elastase inhibition by the extracts was assessed using a modified spectrophotometric method based on Kraunsoe et al. (1996) and Lee et al. (2009). Collagenase inhibition was evaluated using the modified spectrophotometric method by Barrantes and Guinea 2003 [67], which was originally developed by Wart and Steinbrink (1981). The LOX inhibitory activities of the extracts were determined following the method of Chung et al. (2009), with minor modifications. XO inhibition was measured spectrophotometrically by monitoring the absorbance at 295 nm from uric acid formed during an enzymatic reaction. […]

Experiment [2] is described as follows: Nitric oxide radical-scavenging activity. Here is the method: as §1
The determination of the superoxide radical (O2^•−)-scavenging effect was conducted using the method described by Duh et al.. To assess the nitric oxide (NO)-scavenging effect, the method of Sreejayan and Rao was utilised with some modifications.

Experiment [3] deals with xanthine oxidase (XO) (Homo sapiens, UniProt P47989). Nature of the experiment: XO enzyme inhibition, spectrophotometric (uric acid formation at 295 nm). The format is biochemical. How it is done:
as §1
(§2) The enzyme inhibition assays conducted in this study included elastase, collagenase, hyaluronidase, XO, and prolyl POP inhibition and were performed using an ELISA microplate reader (Spectramax i3x microplate reader with Softmax® Pro Software for Windows 10; Molecular Devices, San Jose, USA).

Experiment [4] deals with XO. The note with it: cited from earlier work.
In experiment [5] the target is POP enzyme. The note with it: cited from earlier work.
Details of experiment [6]: method as in earlier work. The note with it: cited from earlier work.
Experiment [7] relates to LOX. Also on record: method as in PMID 27316769. The note with it: dose-dependent; read-out: LOX inhibition IC50; cited from earlier work.
The target of experiment [8] is hyaluronidase. As to the kind of experiment: Hyaluronidase enzyme inhibition assay. The format is biochemical. How it is done: as §1, §2

xanthine oxidase (XO), sequence (P47989 whole entry, species assumed): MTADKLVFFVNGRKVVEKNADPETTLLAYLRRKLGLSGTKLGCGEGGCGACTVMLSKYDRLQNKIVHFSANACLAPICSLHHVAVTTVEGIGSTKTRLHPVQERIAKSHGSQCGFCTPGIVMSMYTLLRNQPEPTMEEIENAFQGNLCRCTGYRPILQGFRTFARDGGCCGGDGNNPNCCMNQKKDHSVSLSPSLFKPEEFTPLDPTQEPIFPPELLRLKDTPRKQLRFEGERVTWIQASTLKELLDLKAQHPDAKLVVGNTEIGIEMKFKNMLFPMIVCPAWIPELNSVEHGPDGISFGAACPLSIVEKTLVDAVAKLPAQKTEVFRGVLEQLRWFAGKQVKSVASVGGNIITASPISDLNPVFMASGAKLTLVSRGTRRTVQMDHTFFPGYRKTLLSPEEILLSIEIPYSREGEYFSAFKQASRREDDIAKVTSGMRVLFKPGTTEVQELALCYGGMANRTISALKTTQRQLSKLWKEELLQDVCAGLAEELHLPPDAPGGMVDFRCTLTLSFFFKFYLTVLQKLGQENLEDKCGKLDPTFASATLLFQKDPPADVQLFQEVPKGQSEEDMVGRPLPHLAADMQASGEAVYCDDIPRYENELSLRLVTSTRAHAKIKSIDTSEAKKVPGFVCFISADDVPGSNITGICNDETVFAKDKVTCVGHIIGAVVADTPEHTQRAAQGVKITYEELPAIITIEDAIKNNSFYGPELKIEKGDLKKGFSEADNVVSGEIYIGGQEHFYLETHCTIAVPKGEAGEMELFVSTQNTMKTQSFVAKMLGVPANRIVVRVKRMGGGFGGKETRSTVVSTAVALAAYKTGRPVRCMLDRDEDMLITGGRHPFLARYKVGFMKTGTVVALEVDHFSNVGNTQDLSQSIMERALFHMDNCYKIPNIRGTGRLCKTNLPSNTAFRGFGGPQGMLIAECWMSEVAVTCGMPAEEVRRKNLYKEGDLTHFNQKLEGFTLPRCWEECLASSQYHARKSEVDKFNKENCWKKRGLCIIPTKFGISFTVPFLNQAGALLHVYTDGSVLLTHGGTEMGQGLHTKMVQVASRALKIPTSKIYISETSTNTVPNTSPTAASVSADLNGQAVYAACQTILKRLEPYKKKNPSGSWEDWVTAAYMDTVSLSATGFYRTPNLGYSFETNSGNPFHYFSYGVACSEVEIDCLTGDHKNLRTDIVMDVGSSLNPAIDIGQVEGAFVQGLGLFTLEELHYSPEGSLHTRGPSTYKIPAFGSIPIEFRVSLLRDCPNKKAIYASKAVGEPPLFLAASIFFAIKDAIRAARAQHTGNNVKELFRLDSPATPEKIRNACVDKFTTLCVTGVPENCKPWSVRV

With `c1cnc2c(c1)ccc1cccnc12` [1,10-phenanthroline], in experiment [1], the “Collagenase inhibition IC50” value stood at 27.95 ± 0.3 µg/mL. In experiment [1] (References (1 mg/mL)), the “Collagenase Enzyme Inhibition (% Inhibition ± S.D.), reference” value was 87.39 ± 2.85%.

Turning to `O=C1O[C@H]([C@@H](O)CO)C(O)=C1O` [Vitamin C], the “Nitric oxide radical-scavenging IC50” value in experiment [2] was found to be 25.28 ± 2.98 µg/mL. The “Nitric Oxide Radical-Scavenging Activity (% Inhibition ± S.D.), reference” value in experiment [2] (Vitamin C (1 mg/mL)) is given as 92.72 ± 0.10%.

For the molecule `Oc1ncnc2[nH]ncc12` [allopurinol, reference compound], in experiment [3] (read-out: XO Enzyme Inhibition (% Inhibition ± S.D.)), the inhibition at 25 µg/mL turned out to be 91.6 ± 1.3%. In addition, in experiment [3] (read-out: XO Enzyme Inhibition (% Inhibition ± S.D.), reference), the inhibition at 500 µg/mL worked out at 91.6 ± 1.3%. In addition, in experiment [4] (read-out: XO inhibition IC50), the IC50 is 4.05 µM.

For the molecule `O=c1cc(-c2ccc(O)cc2)oc2cc(O)cc(O)c12` [apigenin], the IC50 in experiment [3] was 40.1 µM; in experiment [4] (competitive inhibitor, read-out: XO inhibition IC50) it was 3.57 µM.

With `COc1ccc2cc3[n+](cc2c1OC)CCc1cc2c(cc1-3)OCO2` [berberine], in experiment [5] (read-out: POP inhibition IC50), the IC50 was 142 ± 21.5 µM.

As to `O=c1cc(-c2ccc(O)c(O)c2)oc2cc(O)cc(O)c12` [luteolin], the IC50 is 49.8 µM in experiment [3]; 2.38 ± 0.01 µM in experiment [4] (flavonoids isolated from Blumea balsamifera L., read-out: XO inhibitory activity IC50); 0.96 µM in experiment [4] (read-out: XO inhibition IC50). For the same molecule, the “POP inhibition IC50” value in experiment [5] was 0.17 ppm.

Consider `O=C1C[C@@H](c2ccc(O)cc2)Oc2cc(O)cc(O)c21` [naringenin], for which the IC50 in experiment [3] was 130 µM; in experiment [4] (read-out: XO inhibition IC50), 4.57 µM. For the same molecule, the “inhibitory activity against XO (in words)” value in experiment [4] is on record as “moderate inhibitory activity”. Moreover, the “inhibitory activity against the POP enzyme (in words)” value in experiment [5] is “did not exhibit inhibitory activity”.

For the molecule `O=c1c(O)c(-c2ccc(O)c(O)c2)oc2cc(O)cc(O)c12` [quercetin], the “NO radical-scavenging activity IC50” value in experiment [6] is on record as 0.16 ± 0.01 mg/mL.

As for `Oc1ccc2c(c1)OCO2` [sesamol], in experiment [7], the IC50 was 51.8 µM.

Consider tannic acid, for which, in experiment [8], the “Hyaluronidase inhibition IC50” value was determined as 2.31 ± 0.73 µg/mL. In addition, the “Hyaluronidase Enzyme Inhibition (% Inhibition ± S.D.), reference” value in experiment [8] (References (1 mg/mL)) is listed as 92.51 ± 3.53%.
